Test results published in ChEMBL document CHEMBL1201862, “PubChem BioAssay data set” (2004).
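Assay format: 96-well plates, 48-hour exposure. The concentration for 50% growth inhibition is given as GI50.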 The source made the active and inactive calls. Rule as the data show it: active = GI50 up to about 1.1 µM and inactive = higher.

Legend:
Assay in all cases: inhibition of tumour cell growth, NCI panel, 48 h
[1] = tested on: RPMI-8226
[2] = tested on: MCF7
[3] = tested on: SK-OV-3
[4] = tested on: MOLT-4
[5] = tested on: MDA-MB-435
[6] = tested on: HT-29
[7] = tested on: NCI/ADR-RES
[8] = tested on: NCI-H460
[9] = tested on: SNB-19
[10] = tested on: MDA-N
[11] = tested on: 786-0
[12] = tested on: HL-60
[13] = tested on: OVCAR-3
[14] = tested on: SR
[15] = tested on: OVCAR-4
[16] = tested on: UACC-62
[17] = tested on: HCT-15
[18] = tested on: EKVX
[19] = tested on: HCC 2998

NC(=O)/C(=C\c1ccncc1)c1cccc2ccccc12
GI50 [1]: > 100 µM (inactive) | GI50 [2]: > 100 µM (inactive) | GI50 [3]: > 100 µM (inactive) | GI50 [4]: > 100 µM (inactive) | GI50 [5]: > 100 µM (inactive) | GI50 [6]: > 100 µM (inactive) | GI50 [7]: > 100 µM (inactive) | GI50 [8]: 45.1 µM (inactive) | GI50 [9]: > 100 µM (inactive) | GI50 [10]: 43.1 µM (inactive) | GI50 [11]: > 100 µM (inactive) | GI50 [12]: > 100 µM (inactive) | GI50 [13]: > 100 µM (inactive) | GI50 [14]: 53.3 µM (inactive) | GI50 [15]: > 100 µM (inactive) | GI50 [16]: 25.3 µM (inactive) | GI50 [17]: > 100 µM | GI50 [18]: > 100 µM (inactive)

CN1C(=O)c2c(c3c4ccccc4n(C)c3c3c2c2ccccc2n3C)C1=O
GI50 [1]: > 100 µM (inactive) | GI50 [2]: > 100 µM (inactive) | GI50 [3]: > 100 µM (inactive) | GI50 [4]: > 100 µM (inactive) | GI50 [5]: > 100 µM (inactive) | GI50 [6]: > 100 µM (inactive) | GI50 [7]: > 100 µM (inactive) | GI50 [8]: > 100 µM (inactive) | GI50 [9]: > 100 µM (inactive) | GI50 [10]: > 100 µM (inactive) | GI50 [11]: > 100 µM (inactive) | GI50 [13]: 58.6 µM (inactive) | GI50 [19]: > 100 µM (inactive) | GI50 [14]: 67.3 µM (inactive) | GI50 [15]: > 100 µM (inactive) | GI50 [16]: > 100 µM (inactive) | GI50 [17]: > 100 µM | GI50 [18]: > 100 µM (inactive)

O=C1Oc2ccccc2C(=O)/C1=C/NC(=S)NCc1ccccc1
GI50 [2]: > 100 µM (inactive) | GI50 [3]: > 100 µM (inactive) | GI50 [4]: 54.3 µM (inactive) | GI50 [5]: 54.3 µM (inactive) | GI50 [6]: > 100 µM (inactive) | GI50 [7]: 66.1 µM (inactive) | GI50 [8]: 70 µM (inactive) | GI50 [9]: 43.6 µM (inactive) | GI50 [10]: 50.5 µM (inactive) | GI50 [11]: 64.1 µM (inactive) | GI50 [12]: 42.7 µM (inactive) | GI50 [13]: > 100 µM (inactive) | GI50 [19]: 72.4 µM (inactive) | GI50 [15]: 73.8 µM (inactive) | GI50 [17]: 49.5 µM | GI50 [18]: > 100 µM (inactive)

Cc1c(C(=O)O)n2c(C)nnc2c2ccccc12
GI50 [2]: > 100 µM (inactive) | GI50 [3]: > 100 µM (inactive) | GI50 [4]: > 100 µM (inactive) | GI50 [5]: > 100 µM (inactive) | GI50 [6]: > 100 µM (inactive) | GI50 [7]: > 100 µM (inactive) | GI50 [8]: > 100 µM (inactive) | GI50 [10]: > 100 µM (inactive) | GI50 [11]: > 100 µM (inactive) | GI50 [13]: > 100 µM (inactive) | GI50 [19]: > 100 µM (inactive) | GI50 [14]: > 100 µM (inactive) | GI50 [15]: > 100 µM (inactive) | GI50 [16]: > 100 µM (inactive) | GI50 [17]: > 100 µM | GI50 [18]: > 100 µM (inactive)

CCOC(=O)/C(C(=O)Nc1ccc(F)cc1)=C(/N)N1CCCC1
GI50 [1]: > 100 µM (inactive) | GI50 [2]: > 100 µM (inactive) | GI50 [3]: > 100 µM (inactive) | GI50 [4]: > 100 µM (inactive) | GI50 [5]: > 100 µM (inactive) | GI50 [6]: > 100 µM (inactive) | GI50 [7]: > 100 µM (inactive) | GI50 [8]: > 100 µM (inactive) | GI50 [9]: > 100 µM (inactive) | GI50 [10]: > 100 µM (inactive) | GI50 [11]: > 100 µM (inactive) | GI50 [12]: > 100 µM (inactive) | GI50 [13]: > 100 µM (inactive) | GI50 [19]: > 100 µM (inactive) | GI50 [15]: > 100 µM (inactive) | GI50 [16]: > 100 µM (inactive) | GI50 [17]: < 0.01 µM | GI50 [18]: > 100 µM (inactive)

COC(=O)C(Cc1c[nH]c2ccccc12)NP(=O)(O)OCC1OC(n2cc(I)c(=O)[nH]c2=O)CC1O (centres undefined)
GI50 [1]: > 100 µM (inactive) | GI50 [2]: > 100 µM (inactive) | GI50 [3]: > 100 µM (inactive) | GI50 [4]: > 100 µM (inactive) | GI50 [5]: > 100 µM (inactive) | GI50 [6]: > 100 µM (inactive) | GI50 [7]: > 100 µM (inactive) | GI50 [8]: > 100 µM (inactive) | GI50 [9]: > 100 µM (inactive) | GI50 [10]: > 100 µM (inactive) | GI50 [11]: > 100 µM (inactive) | GI50 [12]: > 100 µM (inactive) | GI50 [13]: > 100 µM (inactive) | GI50 [14]: > 100 µM (inactive) | GI50 [15]: > 100 µM (inactive) | GI50 [16]: > 100 µM (inactive) | GI50 [17]: > 100 µM | GI50 [18]: > 100 µM (inactive)

CC12CCC(C/C1=N\NC(N)=O)C2(C)C (centres undefined)
GI50 [1]: > 100 µM (inactive) | GI50 [2]: > 100 µM (inactive) | GI50 [3]: > 100 µM (inactive) | GI50 [4]: > 100 µM (inactive) | GI50 [5]: > 100 µM (inactive) | GI50 [6]: > 100 µM (inactive) | GI50 [7]: > 100 µM (inactive) | GI50 [8]: > 100 µM (inactive) | GI50 [9]: > 100 µM (inactive) | GI50 [10]: > 100 µM (inactive) | GI50 [11]: > 100 µM (inactive) | GI50 [12]: > 100 µM (inactive) | GI50 [13]: > 100 µM (inactive) | GI50 [14]: > 100 µM (inactive) | GI50 [15]: > 100 µM (inactive) | GI50 [16]: > 100 µM (inactive) | GI50 [17]: > 100 µM | GI50 [18]: > 100 µM (inactive)

Cc1nc(C)c(Cc2ccccc2)o1
GI50 [2]: > 100 µM (inactive) | GI50 [3]: > 100 µM (inactive) | GI50 [4]: > 100 µM (inactive) | GI50 [5]: > 100 µM (inactive) | GI50 [6]: > 100 µM (inactive) | GI50 [7]: > 100 µM (inactive) | GI50 [8]: > 100 µM (inactive) | GI50 [9]: > 100 µM (inactive) | GI50 [10]: > 100 µM (inactive) | GI50 [11]: > 100 µM (inactive) | GI50 [12]: > 100 µM (inactive) | GI50 [13]: 98.2 µM (inactive) | GI50 [19]: > 100 µM (inactive) | GI50 [15]: > 100 µM (inactive) | GI50 [16]: > 100 µM (inactive) | GI50 [17]: > 100 µM | GI50 [18]: > 100 µM (inactive)
